Where two headings read alike, the source gives them in different places.
B1: TRAIL: TNF-related apoptosis-inducing ligand, a death receptor ligand used as apoptosis-inducing agent (protein, UniProt P50591 1-281, looked up)
Tumor necrosis factor ligand …: MAMMEVQGGPSLGQTCVLIVIFTVLLQSLCVAVTYVYFTNELKQMQDKYSKSGIACFLKEDDSYWDPNDEESMNSPCWQVKWQLRQLVRKMILRTSEETISTVQEKQQNISPLVRERGPQRVAAHITGTRGRSNTLSSPNSKNEKALGRKINSWESSRSGHSFLSNLHLRNGELVIHEKGFYYIYSQTYFRFQEEIKENTKNDKQMVQYIYKYTSYPDPILLMKSARNSCWSKDAEYGLYSIYQGGIFELKENDRIFVSVTNEHLIDMDHEASFFGAFLVG

Columns and labels:
Format in all cases: cell-based
HepG2 = test: MTT cytotoxicity assay, HepG2 (liver cancer); conditions: Homo sapiens
Experimental: (§1) Cell survival after exposure to the sphingolipid metabolite mimetics was examined by MTT cytotoxicity assay. HepG2, A431, HeLa, MCF-7 and SA cells (7000 cells/well) were seeded in each well of a 96-well plate for 24 h. New medium was added to give final concentrations of 0 to 200 μM of the sphingolipid metabolite mimetics. Then, 50 μl of 1 mg/ml 3-(4,5-dimethylthiazol-2-yl)-2,5-diphenyltetrazolium bromide (MTT, Sigma-Aldrich Chemical) was added to each well for 4 h incubation at 37° C. The purple formazan formed was then solubilized by DMSO and absorbance at 570 nm was read by a microplate reader (Molecular Devices, Sunnyvale, Calif.).

A431 = test: MTT cytotoxicity assay, A431 (squamous carcinoma); conditions: Homo sapiens, A-431
Experimental: as §1

SA = test: MTT cytotoxicity assay, SA (pancreatic cancer as headed)
Experimental: as §1

MCF-7 = test: MTT cytotoxicity assay, MCF-7 (breast cancer); conditions: Homo sapiens, MCF7; Breast Cancer MCF-7, MTT
Experimental: as §1

SiHa = test: MTT cytotoxicity assay, SiHa (ovarian cancer as headed); conditions: Homo sapiens, Cervical Cancer SiHa
SW620 = test: MTT cytotoxicity assay, SW620 (colon cancer); conditions: Homo sapiens, SW-620
SW480 = test: MTT cytotoxicity assay, SW480 (colon cancer); conditions: Homo sapiens
[1] = test system: multiple types of cancer cells; test: MTT cytotoxicity, statements over several cancer cell lines; conditions: for direct anti-cancer cell activity: summary statement
Experimental: as §1

SW620 cells = test: Drug sensitivity MTT assay with TRAIL, SW620; set-up: scale not given here; conditions: for NZJU alone mean value (sensitivity, growth inhibition): drug alone (19-100 μM; TRAIL 100 ng/ml); for NZJU alone mean value (sensitivity, growth inhibition) / combine mean value (sensitivity, growth inhibition): 48 h; for Enhanced mean value: enhancement due to co-administration with TRAIL; for combine mean value (sensitivity, growth inhibition): mimetic at the dose of its row combined with TRAIL 100 ng/ml
Experimental: (§2) Cell survival after exposure to the anti-tumor agents was examined by MTT cytotoxicity assay. Cells were seeded in each well of a 96-well plate for 24 h. After incubation with various concentrations of compounds, TRAIL, or both for 48 h, the medium was discarded. Then, 50 μl of 1 mg/ml 3-(4,5-dimethylthiazol-2-yl)-2,5-diphenyltetrazolium bromide (MTT, Sigma-Aldrich Chemical) was added to each well for 4 h incubation at 37° C. The purple formazan formed was then solubilized by DMSO and absorbance at 570 nm was read by a microplate reader (Molecular Devices, Sunnyvale, Calif.).

MCF-7 cells = test: Drug sensitivity MTT assay with TRAIL, MCF-7; set-up: scale not given here; conditions: for NZJU alone mean value (sensitivity, growth inhibition): drug alone (19-100 μM; TRAIL 100 ng/ml); for NZJU alone mean value (sensitivity, growth inhibition) / combine mean value (sensitivity, growth inhibition): 48 h; for Enhanced mean value: enhancement due to co-administration with TRAIL; for combine mean value (sensitivity, growth inhibition): mimetic at the dose of its row combined with TRAIL 100 ng/ml
Experimental: as §2

HELA cells = test: Drug sensitivity MTT assay with TRAIL, HELA; set-up: scale not given here; conditions: for NZJU alone mean value (sensitivity, growth inhibition): drug alone (19-100 μM; TRAIL 100 ng/ml); for NZJU alone mean value (sensitivity, growth inhibition) / combine mean value (sensitivity, growth inhibition): 48 h; for Enhanced mean value: enhancement due to co-administration with TRAIL; for combine mean value (sensitivity, growth inhibition): mimetic at the dose of its row combined with TRAIL 100 ng/ml
Experimental: as §2

[2] = test system: cancer cells (TRAIL resistance); test: Sensitization of cancer cells to TRAIL-induced apoptosis, general statements; conditions: summary statement
Experimental: as §2

Row | Molecule | IC50 (HepG2) [µM] | IC50 (A431) [µM] | IC50 (SA) [µM] | IC50 (MCF-7) [µM] | IC50 (SiHa) [µM] | IC50 (SW620) [µM] | IC50 (SW480) [µM] | direct anti-cancer cell activity [1] | other results
1 | CCCCCCCCCCCCCCCCCCNC(=O)[C@@H](NC(=O)/C=C/c1ccccc1)[C@@H](C)O [NZJU26, (E)-N-((2S,3R)-3-hydroxy-1-oxo-1-(octadecylamino)butan-2-yl)-3-phenyl acrylic acid amide] | 128 ± 9.04 | 177 ± 7.17 | 47.1 ± 0.54 | 39.2 ± 2.21 | 35.9 ± 2.64 | ≥ 200 | 123 | direct anti-cancer cell activity | –
2 | CCCCCCCCCCCCCCCCCCNC(=O)[C@@H](NC(=O)Cc1c[nH]c2ccccc12)[C@@H](C)O [NZJU29, N-((2S,3R)-3-hydroxy-1-oxo-1-(octadecylamino)butan-2-yl)-indole-3-acetic acid amide] | 57.6 ± 2.69 | 31.8 ± 1.93 | 54.9 ± 3.9 | 37.3 ± 1.82 | 65.8 ± 6.45 | 103 ± 7.48 | 60 | direct anti-cancer cell activity | –
3 | CCCCCCCCCCCCCCNC(=O)[C@@H](NC(=O)c1nccc2ccccc12)[C@@H](C)O [NZJU31, N-((2S,3R)-3-hydroxy-1-oxo-1-(tetradecylamino)butan-2-yl)-isoquinoline-1-carboxamide] | 28.6 ± 3.77 | 23 ± 3.72 | 24.4 ± 3.6 | 22.8 ± 3.94 | 21.6 ± 2.26 | 30.4 ± 2.09 | 23.6 | – | IC50 ([1]; all five cell lines tested, read-out: IC50 values): < 30 µM
4 | CCCCCCCCCCCCNC(=O)[C@@H](NC(=O)c1cccs1)[C@@H](C)O [NZJU33, N-((2S,3R)-3-hydroxy-1-oxo-1-(dodecylamino)butan-2-yl)-2-thiophene carboxamide] | 30.1 ± 3.84 | 16.6 ± 2.12 | 23.3 ± 3.33 | 30.4 ± 2.8 | 23.9 ± 3.65 | 29.2 ± 0.57 | 30.2 | direct anti-cancer cell activity | –
5 | CCCCCCCCNC(=O)[C@@H](NC(=O)c1ccccc1)[C@@H](C)O [NZJU39, N-((2S,3R)-3-hydroxy-1-oxo-1-(octylamino)butan-2-yl)-benzamide] | 136 ± 5.92 | 61.3 ± 4.09 | 34.6 ± 4.17 | 111 ± 4.66 | 112 ± 2.43 | ≥ 200 | > 200 | direct anti-cancer cell activity | –
6 | CCCCCCCCNC(=O)[C@@H](NC(=O)c1cccs1)[C@@H](C)O [NZJU44, N-((2S,3R)-3-hydroxy-1-oxo-1-(octylamino)butan-2-yl)-2-thiophene carboxamide] | 149 ± 8.7 | 32.1 ± 4.6 | 60.9 ± 4.29 | 72.5 ± 3.37 | 91.85 ± 0.59 | 136 ± 42.6 | – | direct anti-cancer cell activity | NZJU alone mean value (sensitivity, growth inhibition) (SW620 cells): 0.563; Enhanced mean value (SW620 cells): 0.128; combine mean value (sensitivity, growth inhibition) (SW620 cells): 0.853; NZJU alone mean value (sensitivity, growth inhibition) (MCF-7 cells): 0.625; NZJU alone mean value (sensitivity, growth inhibition) (MCF-7 cells; listed as NZJU1g): efficient at killing MCF-7 cells; Enhanced mean value (MCF-7 cells): 0.042; combine mean value (sensitivity, growth inhibition) (MCF-7 cells): 0.717; NZJU alone mean value (sensitivity, growth inhibition) (HELA cells): 0.218; Enhanced mean value (HELA cells): 0.357; combine mean value (sensitivity, growth inhibition) (HELA cells): 0.315; TRAIL sensitization activity [2]: TRAIL sensitization activity
7 | CCCCCCCCNC(=O)[C@@H](NC(=O)c1cc2ccccc2o1)[C@@H](C)O [NZJU45, N-((2S,3R)-3-hydroxy-1-oxo-1-(octylamino)butan-2-yl)-benzofuran-2-carboxamide] | 81.3 ± 9.13 | 52.7 ± 3.82 | 40.8 ± 3.63 | 47.2 ± 7.3 | 66.5 ± 2.5 | ≥ 200 | – | direct anti-cancer cell activity | NZJU alone mean value (sensitivity, growth inhibition) (SW620 cells): 0.205; Enhanced mean value (SW620 cells): 0.309; combine mean value (sensitivity, growth inhibition) (SW620 cells): 0.516; NZJU alone mean value (sensitivity, growth inhibition) (MCF-7 cells): 0.021; Enhanced mean value (MCF-7 cells): 0.382; combine mean value (sensitivity, growth inhibition) (MCF-7 cells): 0.538; NZJU alone mean value (sensitivity, growth inhibition) (HELA cells): 0.173; Enhanced mean value (HELA cells): 0.223; combine mean value (sensitivity, growth inhibition) (HELA cells): 0.432; TRAIL sensitization activity [2]: TRAIL sensitization activity
8 | CCCCCCCCCCCCCCNC(=O)[C@@H](N)[C@@H](C)O [NZJU46, (2S,3R)-2-Amino-3-hydroxy-N-tetradecylbutanamide] | – | 14.6 ± 0.76 | 11 ± 1.39 | 10.7 ± 0.98 | 11 ± 1.39 | 18.7 ± 3.81 | – | direct anti-cancer cell activity | –
9 | CCCCCCCCCCCCNC(=O)[C@@H](NC(=O)c1cc2ccccc2[nH]1)[C@@H](C)O [NZJU47, N-((2S,3R)-3-hydroxy-1-oxo-1-(dodecylamino)butan-2-yl)-indole-2-carboxamide] | 12 ± 2.38 | 10.3 ± 2.78 | 12.3 ± 2.75 | – | 21.25 ± 0.01 | – | 10.2 ± 0.73 | direct anti-cancer cell activity | IC50 ([1]; multiple types of cancer cells, read-out: IC50): < 20 µM
10 | CCCCCCCCCCCCCCNC(=O)[C@@H](NS(=O)(=O)c1ccc(C)cc1)[C@@H](C)O [NZJU57, N-((2S,3R)-3-hydroxy-1-oxo-1-(tetradecylamino)butan-2-yl)-4-methylbenzsulfonamide] | 10.9 ± 0.54 | 12 ± 1.87 | 10.9 ± 1.25 | – | 19.2 ± 2.14 | – | 11.8 ± 1.38 | direct anti-cancer cell activity | –
11 | CCCCCCCCCCCCCCNC(=O)[C@@H](NS(=O)(=O)c1cccs1)[C@@H](C)O [NZJU60, N-((2S,3R)-3-hydroxy-1-oxo-1-(tetradecylamino)butan-2-yl)-2-thiophene sulfonamide] | 21.6 ± 2.05 | 22 ± 0.56 | 11.6 ± 2.2 | – | 20.4 ± 2.47 | – | 11.8 ± 1.25 | direct anti-cancer cell activity | –
12 | CCCCCCCCCCCCCCNC(=O)[C@@H](NS(=O)(=O)c1ccc2ccccc2c1)[C@@H](C)O [NZJU62, N-((2S,3R)-3-hydroxy-1-oxo-1-(tetradecylamino)butan-2-yl)-2-naphthylsulfonamide] | 11.4 ± 1.11 | 19.6 ± 2.16 | 10.2 ± 0.3 | – | 11.1 ± 1.39 | – | 5.76 ± 1.02 | direct anti-cancer cell activity | –
13 | B1 | – | – | – | – | – | – | – | – | NZJU alone mean value (sensitivity, growth inhibition) (MCF-7 cells): 0.118; NZJU alone mean value (sensitivity, growth inhibition) (HELA cells): 0.036

From US20150031892A1, “SPHINGOLIPID METABOLITE MIMETICS” (Zhejiang University, priority 2012, published 2015)
